These results are taken from patent publication US20250302848A1, “DRUG-IN-CAPSULE FORMULATIONS OF THROMBOXANE RECEPTOR ANTAGONISTS” (ATXA Therapeutics, Ltd, priority 2024, published 2025).

The test concerns human platelets. Kind of test: inhibition of aggregation of human platelets ex vivo. The test is classed as cell-based. The conditions noted are these: Platelet, read-out: IC50, inhibit aggregation of human platelets ex vivo.

Structures are written as SMILES.

By IC50 is commonly meant the concentration that gives 50% inhibition.

As to `CC(C)(C)NC(=O)NS(=O)(=O)c1cc(C#N)ccc1Oc1cccc(-c2ccc(OC(F)(F)F)cc2)c1` [NTP43], the IC50 lay in the range of 1 to 10 nM.

As to `COc1ccc(-c2cccc(Oc3ccc([N+](=O)[O-])cc3S(=O)(=O)NC(=O)NC(C)(C)C)c2)cc1` [TP20], the IC50 was in the range of 1 to 10 nM.
